Measured values: PubChem BioAssay AID2060898 (Molecular Pharmacology Branch, DTP, NCI, 2025)

Tested on: 616215-338-R-J1-PDC complex spheroid viability
Experiment: Anticancer human tumor 616215-338-R-J1-PDC patient-derived colon adenocarcinoma cell line growth inhibition [RAS]
Settings: for IC50: curve of first compound; for viability, T/C: stronger effect = lower value
In short: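 Multi-cell-type spheroids: tumor cells plus HUVEC endothelial cells and mesenchymal stem cells. RAS-pathway inhibitors were combined with targeted agents, each dosed in half-log steps down from clinical Cmax, or from 10 microM when Cmax was unknown.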

[1] = second compound 0.0316 µM, first compound 0.0316 µM
[2] = second compound 0.0316 µM, first compound 0.1 µM
[3] = second compound 0.0316 µM, first compound 0.316 µM
[4] = second compound 0.0316 µM, first compound 1 µM
[5] = second compound 0.1 µM, first compound 0.0316 µM
[6] = second compound 0.1 µM, first compound 0.1 µM
[7] = second compound 0.1 µM, first compound 0.316 µM
[8] = second compound 0.1 µM, first compound 1 µM
[9] = second compound 0.316 µM, first compound 0.0316 µM
[10] = second compound 0.316 µM, first compound 0.1 µM
[11] = second compound 0.316 µM, first compound 0.316 µM
[12] = second compound 0.316 µM, first compound 1 µM
[13] = second compound 1 µM, first compound 0.0316 µM
[14] = second compound 1 µM, first compound 0.1 µM
[15] = second compound 1 µM, first compound 0.316 µM
[16] = second compound 1 µM, first compound 1 µM
[17] = second compound 3.16 µM, first compound 0.0316 µM
[18] = second compound 3.16 µM, first compound 0.1 µM
[19] = second compound 3.16 µM, first compound 0.316 µM
[20] = second compound 3.16 µM, first compound 1 µM
[21] = second compound 10 µM, first compound 0.0316 µM
[22] = second compound 10 µM, first compound 0.1 µM
[23] = second compound 10 µM, first compound 0.316 µM
[24] = second compound 10 µM, first compound 1 µM
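Also: spheroids exposed to agents for seven days before viability readout.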
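For viability, T/C in this document: 100% = DMSO vehicle control viability.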

Q: `CC(=O)OC12COC1CC(O)C1(C)C(=O)C(O)C3=C(C)C(OC(=O)C(O)C(NC(=O)OC(C)(C)C)c4ccccc4)CC(O)(C(OC(=O)c4ccccc4)C21)C3(C)C` (stereo unspecified) + C#Cc1c(F)ccc2cc(O)cc(-c3ncc4c(N5CC6CCC(C5)N6)nc(OCC56CCCN5CC(F)C6)nc4c3F)c12 was tested. Which IC50 (second compound 0.0316 µM) did it give?
A: < 31.6 nM

Q: And the IC50 (second compound 0.1 µM)?
A: < 31.6 nM

Q: And the IC50 (second compound 0.316 µM)?
A: < 31.6 nM

Q: What about the IC50 (second compound 1 µM) of the same compound?
A: < 31.6 nM

Q: What about the IC50 (second compound 3.16 µM) of the same compound?
A: < 31.6 nM

Q: What about the IC50 (second compound 10 µM) of the same compound?
A: < 31.6 nM

Q: And the viability, T/C [1]?
A: 26.7%

Q: What about the viability, T/C [2] of the same compound?
A: 23.1%

Q: And the viability, T/C [3]?
A: 18.6%

Q: And the viability, T/C [4]?
A: 18.8%

Q: What about the viability, T/C (second compound 0.0316 µM, first compound 3.16 µM) of the same compound?
A: 22.8%

Q: And the viability, T/C (second compound 0.0316 µM, first compound 10 µM)?
A: 23%

Q: What about the viability, T/C [5] of the same compound?
A: 26.2%

Q: What about the viability, T/C [6] of the same compound?
A: 23.6%

Q: And the viability, T/C [7]?
A: 17.9%

Q: What about the viability, T/C [8] of the same compound?
A: 18%

Q: And the viability, T/C (second compound 0.1 µM, first compound 3.16 µM)?
A: 25.9%

Q: What about the viability, T/C (second compound 0.1 µM, first compound 10 µM) of the same compound?
A: 23.3%

Q: What about the viability, T/C [9] of the same compound?
A: 29.3%

Q: And the viability, T/C [10]?
A: 21.3%

Q: And the viability, T/C [11]?
A: 18%

Q: What about the viability, T/C [12] of the same compound?
A: 18.1%

Q: What about the viability, T/C (second compound 0.316 µM, first compound 3.16 µM) of the same compound?
A: 22.4%

Q: And the viability, T/C (second compound 0.316 µM, first compound 10 µM)?
A: 22.1%

Q: And the viability, T/C [13]?
A: 23%

Q: And the viability, T/C [14]?
A: 19.6%

Q: And the viability, T/C [15]?
A: 20.9%

Q: And the viability, T/C [16]?
A: 17.1%

Q: What about the viability, T/C (second compound 1 µM, first compound 3.16 µM) of the same compound?
A: 19.1%

Q: And the viability, T/C (second compound 1 µM, first compound 10 µM)?
A: 19.4%

Q: And the viability, T/C [17]?
A: 20.7%

Q: And the viability, T/C [18]?
A: 17.4%

Q: What about the viability, T/C [19] of the same compound?
A: 15.9%

Q: And the viability, T/C [20]?
A: 15.1%

Q: What about the viability, T/C (second compound 3.16 µM, first compound 3.16 µM) of the same compound?
A: 17.9%

Q: And the viability, T/C (second compound 3.16 µM, first compound 10 µM)?
A: 23.4%

Q: What about the viability, T/C [21] of the same compound?
A: 14.5%

Q: What about the viability, T/C [22] of the same compound?
A: 14.9%

Q: What about the viability, T/C [23] of the same compound?
A: 16.1%

Q: And the viability, T/C [24]?
A: 13%

Q: What about the viability, T/C (second compound 10 µM, first compound 3.16 µM) of the same compound?
A: 17.5%

Q: And the viability, T/C (second compound 10 µM, first compound 10 µM)?
A: 12.3%

Q: Which IC50 (second compound 0.0316 µM) does the source give for `CCc1c2c(nc3ccc(O)cc13)-c1cc3c(c(=O)n1C2)COC(=O)[C@]3(O)CC` + C#Cc1c(F)ccc2cc(O)cc(-c3ncc4c(N5CC6CCC(C5)N6)nc(OCC56CCCN5CC(F)C6)nc4c3F)c12 here?
A: 10.2 nM

Q: And the IC50 (second compound 0.1 µM)?
A: 10.7 nM

Q: And the IC50 (second compound 0.316 µM)?
A: 16.8 nM

Q: What about the IC50 (second compound 1 µM) of the same compound?
A: 7.72 nM

Q: And the IC50 (second compound 3.16 µM)?
A: 4.71 nM

Q: And the IC50 (second compound 10 µM)?
A: < 0.949 nM

Q: What about the viability, T/C (second compound 0.0316 µM, first compound 0.000949 µM) of the same compound?
A: 108%

Q: And the viability, T/C (second compound 0.0316 µM, first compound 0.003 µM)?
A: 108%

Q: And the viability, T/C (second compound 0.0316 µM, first compound 0.00949 µM)?
A: 50.2%

Q: What about the viability, T/C (second compound 0.0316 µM, first compound 0.03 µM) of the same compound?
A: 35%

Q: What about the viability, T/C (second compound 0.0316 µM, first compound 0.0949 µM) of the same compound?
A: 21.1%

Q: What about the viability, T/C (second compound 0.0316 µM, first compound 0.3 µM) of the same compound?
A: 16.5%

Q: And the viability, T/C (second compound 0.1 µM, first compound 0.000949 µM)?
A: 116%

Q: What about the viability, T/C (second compound 0.1 µM, first compound 0.003 µM) of the same compound?
A: 103%

Q: And the viability, T/C (second compound 0.1 µM, first compound 0.00949 µM)?
A: 50.8%

Q: And the viability, T/C (second compound 0.1 µM, first compound 0.03 µM)?
A: 27.9%

Q: What about the viability, T/C (second compound 0.1 µM, first compound 0.0949 µM) of the same compound?
A: 21.6%

Q: What about the viability, T/C (second compound 0.1 µM, first compound 0.3 µM) of the same compound?
A: 13.6%

Q: And the viability, T/C (second compound 0.316 µM, first compound 0.000949 µM)?
A: 112%

Q: And the viability, T/C (second compound 0.316 µM, first compound 0.003 µM)?
A: 100%

Q: And the viability, T/C (second compound 0.316 µM, first compound 0.00949 µM)?
A: 63%

Q: What about the viability, T/C (second compound 0.316 µM, first compound 0.03 µM) of the same compound?
A: 36%

Q: And the viability, T/C (second compound 0.316 µM, first compound 0.0949 µM)?
A: 20.6%

Q: What about the viability, T/C (second compound 0.316 µM, first compound 0.3 µM) of the same compound?
A: 14%

Q: And the viability, T/C (second compound 1 µM, first compound 0.000949 µM)?
A: 120%

Q: What about the viability, T/C (second compound 1 µM, first compound 0.003 µM) of the same compound?
A: 89.6%

Q: What about the viability, T/C (second compound 1 µM, first compound 0.00949 µM) of the same compound?
A: 38.7%

Q: And the viability, T/C (second compound 1 µM, first compound 0.03 µM)?
A: 30.5%

Q: What about the viability, T/C (second compound 1 µM, first compound 0.0949 µM) of the same compound?
A: 20.2%

Q: And the viability, T/C (second compound 1 µM, first compound 0.3 µM)?
A: 15.8%

Q: And the viability, T/C (second compound 3.16 µM, first compound 0.000949 µM)?
A: 89.3%

Q: What about the viability, T/C (second compound 3.16 µM, first compound 0.003 µM) of the same compound?
A: 65.8%

Q: What about the viability, T/C (second compound 3.16 µM, first compound 0.00949 µM) of the same compound?
A: 25.1%

Q: What about the viability, T/C (second compound 3.16 µM, first compound 0.03 µM) of the same compound?
A: 20%

Q: And the viability, T/C (second compound 3.16 µM, first compound 0.0949 µM)?
A: 15.1%

Q: And the viability, T/C (second compound 3.16 µM, first compound 0.3 µM)?
A: 13.2%

Q: What about the viability, T/C (second compound 10 µM, first compound 0.000949 µM) of the same compound?
A: 47.1%

Q: What about the viability, T/C (second compound 10 µM, first compound 0.003 µM) of the same compound?
A: 45%

Q: What about the viability, T/C (second compound 10 µM, first compound 0.00949 µM) of the same compound?
A: 17.5%

Q: And the viability, T/C (second compound 10 µM, first compound 0.03 µM)?
A: 17.6%

Q: And the viability, T/C (second compound 10 µM, first compound 0.0949 µM)?
A: 16.6%

Q: And the viability, T/C (second compound 10 µM, first compound 0.3 µM)?
A: 10.7%

Q: For `Nc1ccn(C2OC(CO)C(O)C2(F)F)c(=O)n1` (stereo unspecified) + C#Cc1c(F)ccc2cc(O)cc(-c3ncc4c(N5CC6CCC(C5)N6)nc(OCC56CCCN5CC(F)C6)nc4c3F)c12, which IC50 (second compound 0.0316 µM) is on record?
A: 9.25 nM

Q: What about the IC50 (second compound 0.1 µM) of the same compound?
A: 9.98 nM

Q: And the IC50 (second compound 0.316 µM)?
A: 9.74 nM

Q: And the IC50 (second compound 1 µM)?
A: 5.94 nM

Q: And the IC50 (second compound 3.16 µM)?
A: 3.91 nM

Q: What about the IC50 (second compound 10 µM) of the same compound?
A: 3.26 nM

Q: What about the viability, T/C (second compound 0.0316 µM, first compound 0.00316 µM) of the same compound?
A: 113%

Q: And the viability, T/C (second compound 0.0316 µM, first compound 0.01 µM)?
A: 44.9%

Q: And the viability, T/C [1]?
A: 24.6%

Q: What about the viability, T/C [2] of the same compound?
A: 13%

Q: What about the viability, T/C [3] of the same compound?
A: 13.2%

Q: And the viability, T/C [4]?
A: 16.3%

Q: And the viability, T/C (second compound 0.1 µM, first compound 0.00316 µM)?
A: 117%

Q: What about the viability, T/C (second compound 0.1 µM, first compound 0.01 µM) of the same compound?
A: 48.8%

Q: And the viability, T/C [5]?
A: 28.1%

Q: And the viability, T/C [6]?
A: 14.9%

Q: What about the viability, T/C [7] of the same compound?
A: 14.4%

Q: And the viability, T/C [8]?
A: 14.6%

Q: And the viability, T/C (second compound 0.316 µM, first compound 0.00316 µM)?
A: 90%

Q: What about the viability, T/C (second compound 0.316 µM, first compound 0.01 µM) of the same compound?
A: 48.5%

Q: What about the viability, T/C [9] of the same compound?
A: 28.4%

Q: What about the viability, T/C [10] of the same compound?
A: 15.6%

Q: What about the viability, T/C [11] of the same compound?
A: 13.9%

Q: And the viability, T/C [12]?
A: 14.8%

Q: What about the viability, T/C (second compound 1 µM, first compound 0.00316 µM) of the same compound?
A: 77%

Q: And the viability, T/C (second compound 1 µM, first compound 0.01 µM)?
A: 24.4%

Q: And the viability, T/C [13]?
A: 26.7%

Q: What about the viability, T/C [14] of the same compound?
A: 12.7%

Q: What about the viability, T/C [15] of the same compound?
A: 10.8%

Q: What about the viability, T/C [16] of the same compound?
A: 12.1%

Q: And the viability, T/C (second compound 3.16 µM, first compound 0.00316 µM)?
A: 55.9%

Q: What about the viability, T/C (second compound 3.16 µM, first compound 0.01 µM) of the same compound?
A: 24.1%

Q: And the viability, T/C [17]?
A: 19%

Q: What about the viability, T/C [18] of the same compound?
A: 10.6%

Q: What about the viability, T/C [19] of the same compound?
A: 11.6%

Q: What about the viability, T/C [20] of the same compound?
A: 12.1%

Q: What about the viability, T/C (second compound 10 µM, first compound 0.00316 µM) of the same compound?
A: 50.9%

Q: What about the viability, T/C (second compound 10 µM, first compound 0.01 µM) of the same compound?
A: 21.4%

Q: And the viability, T/C [21]?
A: 16.3%

Q: And the viability, T/C [22]?
A: 12.4%

Q: And the viability, T/C [23]?
A: 10%

Q: What about the viability, T/C [24] of the same compound?
A: 10.9%
